Literature values, collected in patent EP4803073A2, “METHODS AND COMPOSITIONS FOR TREATMENT OF DISORDERS AMELIORATED BY MUSCARINIC RECEPTOR ACTIVATION” (Puretech Health LLC, priority 2009, dated 2011).

Legend:
[1] = clozapine-associated sialorrhea
[2] = given with the muscarinic agonist xanomeline; syncope is a side effect observed with xanomeline
[3] = double-blind placebo controlled trial
[4] = phase I and subsequent trials
[5] = with the anticholinergic agent glycopyrrolate; escalating amounts of RS-86

In the case of `Clc1cccc(Cl)c1N=C1NCCN1` [clonidine], the “efficacy in reducing sialorrhea” value [1] is listed as “shown efficacy in reducing sialorrhea in small scale trials”.
For `C[N+]1(C)[C@@H]2C[C@@H](OC(=O)[C@H](CO)c3ccccc3)C[C@H]1[C@@H]1O[C@@H]12` [methscopolamine], the effect on syncope [2] is given as “no effect on syncope”.
In the case of `CCCCCCOc1nsnc1C1=CCCN(C)C1` [xanomeline], the alleviation of schizophrenia [3] is listed as “alleviation of schizophrenia was observed” and the side effects [4] is listed as “unacceptable GI side effects”.
For `CCN1C(=O)CC2(CCN(C)CC2)C1=O` [RS-86], the improvement in cognition [5] is listed as “did not result in any improvement in cognition”.
